SMILES strings stand for the structures. Active and inactive are the calls of the source. The calls are words filed in the database; no cut-off is given here.

Test [1] concerns the target T1, Steroid hormone receptor ERR1 (Homo sapiens) (UniProt P11474).
T1 sequence (whole entry): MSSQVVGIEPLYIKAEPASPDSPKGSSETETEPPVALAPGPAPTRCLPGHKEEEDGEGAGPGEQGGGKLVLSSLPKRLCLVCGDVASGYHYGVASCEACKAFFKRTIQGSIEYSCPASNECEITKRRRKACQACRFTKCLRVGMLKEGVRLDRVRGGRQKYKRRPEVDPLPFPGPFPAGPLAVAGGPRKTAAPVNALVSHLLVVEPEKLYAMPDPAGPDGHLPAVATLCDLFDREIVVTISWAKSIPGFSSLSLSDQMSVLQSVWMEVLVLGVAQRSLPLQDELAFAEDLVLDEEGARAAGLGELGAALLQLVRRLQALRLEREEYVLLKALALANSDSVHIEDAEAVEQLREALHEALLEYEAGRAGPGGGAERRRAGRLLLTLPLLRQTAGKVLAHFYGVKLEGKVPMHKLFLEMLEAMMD
The experiment in a line: Inverse agonist activity at GAL4-DNA binding domain-fused human ERRalpha ligand binding domain expressed in African green monkey CV1 cells assessed as decrease in receptor transcriptional activity at 10 uM after 45 hrs by luciferase reporter gene assay. It is filed as cell-based.

The target of test [2] is T1, Steroid hormone receptor ERR1 (Homo sapiens). The experiment in a line: Inverse agonist activity at GAL4-DNA binding domain-fused human ERRalpha ligand binding domain expressed in African green monkey CV1 cells assessed as decrease in receptor transcriptional activity after 45 hrs by luciferase reporter gene assay. It is filed as cell-based.
The target in test [3] is T2, Estrogen receptor (Homo sapiens) (UniProt P03372).
T2 sequence (whole entry): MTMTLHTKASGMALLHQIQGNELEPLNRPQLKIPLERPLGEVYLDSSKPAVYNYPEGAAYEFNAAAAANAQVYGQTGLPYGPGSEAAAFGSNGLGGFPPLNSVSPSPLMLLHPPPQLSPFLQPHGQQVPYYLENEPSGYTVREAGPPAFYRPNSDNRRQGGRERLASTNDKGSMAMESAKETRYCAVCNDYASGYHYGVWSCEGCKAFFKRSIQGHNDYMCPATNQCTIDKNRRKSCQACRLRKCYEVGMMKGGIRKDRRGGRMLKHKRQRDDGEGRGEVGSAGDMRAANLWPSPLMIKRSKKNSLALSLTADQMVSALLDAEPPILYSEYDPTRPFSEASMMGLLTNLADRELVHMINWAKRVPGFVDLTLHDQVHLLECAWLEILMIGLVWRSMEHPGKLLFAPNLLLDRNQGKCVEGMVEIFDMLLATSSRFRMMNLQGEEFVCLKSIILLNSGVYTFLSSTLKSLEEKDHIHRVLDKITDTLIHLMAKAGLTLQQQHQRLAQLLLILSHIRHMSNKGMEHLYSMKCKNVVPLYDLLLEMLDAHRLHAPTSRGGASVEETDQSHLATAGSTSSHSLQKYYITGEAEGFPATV
The experiment in a line: Inverse agonist activity at human ERalpha expressed in African green monkey CV1 cells assessed as decrease in receptor transcriptional activity up to 3 uM after 45 hrs by luciferase reporter gene assay. It counts as cell-based.

For test [4], the target named is Estrogen receptor beta (Homo sapiens) (UniProt Q92731). The experiment in a line: Inverse agonist activity at human ERbeta expressed in African green monkey CV1 cells assessed as decrease in receptor transcriptional activity up to 3 uM after 45 hrs by luciferase reporter gene assay. It counts as cell-based.
Sequence of Estrogen receptor beta (Homo sapiens) (Q92731 whole entry): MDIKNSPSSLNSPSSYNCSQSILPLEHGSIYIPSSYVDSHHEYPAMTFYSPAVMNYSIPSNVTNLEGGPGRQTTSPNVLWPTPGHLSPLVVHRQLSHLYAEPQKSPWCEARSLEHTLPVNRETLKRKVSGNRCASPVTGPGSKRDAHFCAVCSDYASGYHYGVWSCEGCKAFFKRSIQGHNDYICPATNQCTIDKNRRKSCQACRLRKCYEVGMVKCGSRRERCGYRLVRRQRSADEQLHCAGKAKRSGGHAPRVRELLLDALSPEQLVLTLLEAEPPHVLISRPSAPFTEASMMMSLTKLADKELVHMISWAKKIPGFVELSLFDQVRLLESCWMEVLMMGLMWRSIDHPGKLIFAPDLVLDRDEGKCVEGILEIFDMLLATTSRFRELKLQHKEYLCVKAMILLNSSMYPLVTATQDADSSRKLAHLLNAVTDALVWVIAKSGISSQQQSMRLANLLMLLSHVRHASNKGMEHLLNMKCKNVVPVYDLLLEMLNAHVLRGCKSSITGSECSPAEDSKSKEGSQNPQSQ
The target in test [5] is T3, Estrogen-related receptor gamma (Mus musculus, UniProt P62509).
T3 sequence (P62509 whole entry): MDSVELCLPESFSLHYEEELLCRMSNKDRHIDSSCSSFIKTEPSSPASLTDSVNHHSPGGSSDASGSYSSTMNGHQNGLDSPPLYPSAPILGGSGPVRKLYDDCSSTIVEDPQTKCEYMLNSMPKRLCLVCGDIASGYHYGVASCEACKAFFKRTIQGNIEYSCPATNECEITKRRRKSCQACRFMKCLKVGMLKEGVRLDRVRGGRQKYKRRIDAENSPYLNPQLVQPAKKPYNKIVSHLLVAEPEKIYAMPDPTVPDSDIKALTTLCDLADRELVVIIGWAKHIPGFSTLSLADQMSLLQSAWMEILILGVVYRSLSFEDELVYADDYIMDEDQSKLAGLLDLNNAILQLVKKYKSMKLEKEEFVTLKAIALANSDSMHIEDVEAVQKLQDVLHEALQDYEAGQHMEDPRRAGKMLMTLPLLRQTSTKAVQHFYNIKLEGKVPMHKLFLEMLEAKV
Description: Inverse agonist activity at GAL4-DNA binding domain-fused mouse ERRgamma ligand binding domain expressed in African green monkey CV1 cells assessed as decrease in receptor transcriptional activity after 45 hrs by luciferase reporter gene assay

Test [6] has as its target T2, Estrogen receptor (Homo sapiens). The test is described as follows: Antagonist activity at human ERalpha expressed in African green monkey CV1 cells assessed as decrease in receptor transcriptional activity after 45 hrs by luciferase reporter gene assay. It counts as cell-based.

Turning to `CC(=O)Oc1ccc(/C(=C(\CC(C)CO)c2ccccc2)c2ccc(OCCN(C)C)cc2)cc1` (stereo not given), the result in test [1] was inactive.

On to `CC(CO)C/C(=C(\c1ccc(O)cc1)c1ccc(OCCN(C)C)cc1)c1ccccc1` (stereo not given), for which the result in test [1] was inactive.

With `CC/C(=C(/c1ccc(O)cc1)c1ccc(OCCN(C)C)cc1)c1ccccc1`, the result in test [2] was inactive.

For the molecule `COC(=O)C(C)C/C(=C(\c1ccc(O)cc1)c1ccc(OCCN(C)C)cc1)c1ccccc1` (stereo not given), the outcome in test [1], in test [3] and in test [4] was inactive.

`COC(=O)CCC(=C(c1ccc(O)cc1)c1ccc(O)cc1)c1ccccc1`: in test [1], the outcome was inactive.

Consider `CC(C)C/C(=C(\c1ccc(O)cc1)c1ccc(OCCN(C)C)cc1)c1ccccc1`, for which, in test [1], the result was inactive. The molecule further returned an IC50 in test [5] of 1000 nM.

Consider `COC(=O)C(C)CC(=C(c1ccc(O)cc1)c1ccc(O)cc1)c1ccccc1` (stereo not given), for which the outcome in test [1] was inactive.

In the case of `CC(C)/C(=C(\c1ccc(O)cc1)c1ccc(OCCN(C)C)cc1)c1ccccc1`, in test [1], the result was inactive.

`CN(C)CCOc1ccc(/C(=C(/CCCO)c2ccccc2)c2ccc(O)cc2)cc1`: the outcome in test [1] was inactive.

In the case of `CC(=O)Oc1ccc(/C(=C(\CCCO)c2ccccc2)c2ccc(OCCN(C)C)cc2)cc1`, in test [1], the result was inactive. Moreover, in test [5], the IC50 was found to be 300 nM.

In the case of `CC(=O)Oc1ccc(/C(=C(/c2ccccc2)C(C)C)c2ccc(OCCN(C)C)cc2)cc1`, the inhibition result in test [6] was “Active”. For the same molecule, the outcome in test [1] was inactive.

Consider `COC(=O)CC/C(=C(\c1ccc(O)cc1)c1ccc(OCCN(C)C)cc1)c1ccccc1`, for which the result in test [1], in test [3] and in test [4] was inactive.

Consider `CC/C(=C(\c1ccc(O)cc1)c1ccc(OCCN(C)C)cc1)c1ccccc1`, for which the result in test [1] was inactive.

(Values after ChEMBL document CHEMBL3997814, “Identification of novel inverse agonists of estrogen-related receptors ERRγ and ERRβ” (Bioorg Med Chem, 2017).)
